Results from US10301292B2, “Bicyclic compound” (Takeda Pharmaceutical Company Limited, priority 2014, dated 2019).

What was measured:
HCT116 cells = experiment: Growth inhibitory activity on HCT116 cell (CellTiter-Glo); format: cell-based; conditions: table head: 10 μM (text b2498: 1 μM), 3 days incubation; for inhibition at 10 µM: Homo sapiens, HCT-116, 72 h, read-out: HCT116 cell proliferation inhibitory rate (%) at 10 μM
Method: The growth inhibitory activity of the compound on HCT116 cell was evaluated by the following method.
HCT116 cells were seeded in a 384 well blackplate at 900 cells/30 μL/well, and maintained in an RPMI medium (Wako)) containing an assay medium (2% fetal bovine serum, 50 Unit/mL penicillin, 50 μg/mL streptomycin (Invitrogen). The next day, a test compound dissolved in dimethyl sulfoxide (DMSO) was diluted with the assay medium, and the obtained compound solution was added by 10 μL to each well of a plate containing HCT116 cells and incubated at 37° C., 5% CO2 (test compound addition group).
A similar reaction was performed without adding a test compound (test compound non-addition group).
Furthermore, a similar reaction was performed under the conditions without adding HCT116 cell and a test compound (control group).
After 3 days, 20 μL of a CellTiter-Glo reagent (Promega KK) was added to the well, and the mixture was stirred for 10 min. Thereafter, the luminescence value of each well was measured by the EnVision™ multilabel counter (Perkin Elmer Inc.).
The HCT116 cell proliferation inhibitory rate (%) of the test compound was determined by the following calculation formula. (1−(luminescence of test compound addition group−luminescence of control group)÷(luminescence of test compound nonaddition group−luminescence of control group))×100

human ACC1 = biological target: T1, human ACC1 (Homo sapiens, UniProt Q13085); experiment: Measurement of ACC1 inhibitory activity (Malonyl-CoA production, RapidFire-mass spectrometry); format: biochemical; conditions: 10 μM of the test compound, recombinant human ACC1; for inhibition at 10 µM: read-out: ACC1 inhibitory rate (%) at 10 μM
T1 construct: His tag (from vector pFAST-BacHTc; protein captured on Ni-NTA) (N); made in house; host or cells: SF-9 insect cells, recombinant baculovirus BAC-ACC1
Method: (1) Cloning of Human ACC1 Gene and Preparation of Recombinant Baculovirus
Human ACC1 gene was cloned by PCR using a human liver cDNA library (Clontech) as a template and Primer 1 and Primer 2 shown below. Primer 1 and Primer 2 were prepared by adding SalI, NotI restriction enzyme recognition sequences based on the information of the base sequence of human ACC1 gene (Genbank Accession U19822).
PCR was performed using Pyrobest DNA polymerase (TAKARA BIO INC.). The obtained PCR product was cloned to pT7 Blue vector (Novagen) and after confirmation of the base sequence, digested with restriction enzymes SalI and XbaI. The obtained DNA fragment was inserted into pFAST-BacHTc (Invitrogen) digested with restriction enzymes SalI and XbaI to give expression plasmid ACC1/pFAST-BacHTc.
Using the expression plasmid ACC1/pFAST-BacHTc and BAC-TO-BAC Baculovirus Expression System (Invitrogen), virus stock BAC-ACC1 of recombinant Baculovirus was prepared.
(2) Preparation of ACC1 Protein
SF-9 cells (Invitrogen) were inoculated to a medium (10 L) for insect cells (Sf-900IISFM medium (Invitrogen) containing 5% fetal bovine serum (Trace), 50 mg/L Gentamicin (Wako Pure Chemical Industries, Ltd.), 0.1% Pluronic F-68 (Invitrogen)) at 1.0×10^6 cells/mL, and cultured with shaking in Wave Bioreactor (GE Healthcare) at 27° C., 20 rpm, rocking angle 10°, oxygen concentration 30%.
On day 2 of the culture, recombinant Baculovirus BAC-ACC1 was added, and the cells were cultured for 3 days. The culture medium was centrifuged at 4000×g for 10 min to give virus-infected cells. The cells were washed with phosphate buffered saline (Invitrogen) and centrifuged under the same conditions. The obtained cells were cryopreserved at −80° C.
The cryopreserved cells were thawed in ice and suspended in 800 mL of 25 mM HEPES buffer (pH 7.5) containing 10% Glycerol, 0.3 M NaCl, 1 mM EDTA, 25 mM Sodium β-Glycerophosphate and 1 mM Sodium Orthovanadate, and supplemented with Complete Protease Inhibitor (Roche). The obtained suspension was homogenized two times in a polytron homogenizer (Kinematica) at 20,000 rpm for 20 sec. The obtained cell disruption solution was clarified by centrifugation at 186,000×g for 60 min and the supernatant was passed through Ni-NTA Superflow Cartridges (5 mL) (QUIAGEN). Furthermore, it was washed with 25 mM HEPES buffer (pH 7.5) containing 20 mM Imidazole, 0.3 M NaCl, and eluted with 25 mM HEPES buffer (pH 7.5) containing 250 mM Imidazol, 0.3 M NaCl. The eluate was concentrated by Amicon Ultra-15 (Nihon Millipore K.K.) having a fraction molecular weight of 50K. The obtained concentrate was subjected to gel filtration with 50 mM HEPES buffer (pH 7.5) containing 10 mM MgCl2, 2 mM dithiothreitol, 10 mM tripotassium citrate, 0.3 M NaCl by using HiLoad 26/60 Superdex200 prep grade gel filtration column (GE Healthcare) to give ACC1. The obtained ACC1 was cryopreserved at −80° C.
(3) Measurement of ACC1 Inhibitory Activity
ACC1 obtained in the above-mentioned (2) was diluted with an enzyme reaction buffer (50 mM HEPES (pH 7.5), 10 mM MgCl2, 10 mM Tripottasium Citrate, 2 mM Dithiothreitol, 0.001% Fatty acid free BSA) to a concentration of 0.2 μg/ml, and the mixture was added to each well of a 384 well assay plate by 10 μl. A test compound dissolved in dimethyl sulfoxide (DMSO) was diluted with an enzyme reaction buffer and the resulting solution (5 μl) was added to each well. The mixture was incubated at room temperature for 60 min. Then, a substrate solution (50 mM KHCO3, 200 μM ATP, 200 μM Acetyl-CoA, 5 μl) was added to each well, and the mixture was reacted at room temperature for 30 min. The reaction was quenched by adding a reaction quenching liquid (1.3% formic acid, 0.2 μM Malonyl-^13C3-CoA) by 60 μL each to the obtained reaction mixtures (test compound addition group).
In addition, a reaction was performed in the same manner as above and without adding the test compound (test compound non-addition group). […]

Row | SMILES | inhibition at 10 µM (human ACC1) | inhibition at 10 µM (HCT116 cells) | also measured
1 | CC(=O)NC(C)c1ccc2nc(N3CC(Oc4cccc(OCC5CC5)c4)C3)oc2c1 (centres unmarked) [Example 1, N-(1-(2-(3-(3-(cyclopropylmethoxy)phenoxy)azetidin-1-yl)-1,3-benzoxazol-6-yl)ethyl)acetamide] | 100% |  | HCT116 cell proliferation inhibitory rate (%) at 10 μM (HCT116 cells): 12%
2 | CC(=O)NC(C)c1ccc2nc(N3CC(Oc4cccc(OCC5CC5)c4)C3)oc2c1 (centres unmarked) [Example 1b, N-(1-(2-(3-(3-(cyclopropylmethoxy)phenoxy)azetidin-1-yl)-1,3-benzoxazol-6-yl)ethyl)acetamide] |  |  | HCT116 cell proliferation inhibitory rate (%) at 10 μM (HCT116 cells): 32%; ACC1 inhibitory rate (%) at 10 μM (human ACC1; 10 µM): 96%
3 | CC(=O)NC(C)c1ccc2nc(-c3ccc(Oc4cccc(OCC5CC5)c4)cc3)oc2c1 (centres unmarked) [Example 8, N-(1-(2-(4-(3-(cyclopropylmethoxy)phenoxy)phenyl)-1,3-benzoxazol-6-yl)ethyl)acetamide] | 95% | 42% | 
4 | CC(=O)NC(C)c1ccc2nc(-c3ccc(Oc4cccc(OCC5CC5)c4)cn3)oc2c1 (centres unmarked) [Example 9, N-(1-(2-(5-(3-(cyclopropylmethoxy)phenoxy)pyridin-2-yl)-1,3-benzoxazol-6-yl)ethyl)acetamide] | 99% | 45% | 
5 | CC(=O)NC(C)c1ccc2nc(-c3ccc(Oc4cccc(OCC5CC5)c4)cn3)oc2c1 (centres unmarked) [Example 9b, N-(1-(2-(5-(3-(cyclopropylmethoxy)phenoxy)pyridin-2-yl)-1,3-benzoxazol-6-yl)ethyl)acetamide] |  |  | HCT116 cell proliferation inhibitory rate (%) at 10 μM (HCT116 cells): 29%; ACC1 inhibitory rate (%) at 10 μM (human ACC1): 99%
6 | CCCOc1cccc(Oc2ccc(-c3nc4ccc(C(C)NC(C)=O)cc4o3)nc2)c1 (centres unmarked) [Example 12, N-(1-(2-(5-(3-propoxyphenoxy)pyridin-2-yl)-1,3-benzoxazol-6-yl)ethyl)acetamide] | 94% |  | 
7 | CCCCOc1cccc(Oc2ccc(-c3nc4ccc(C(C)NC(C)=O)cc4o3)nc2)c1 (centres unmarked) [Example 13, N-(1-(2-(5-(3-butoxyphenoxy)pyridin-2-yl)-1,3-benzoxazol-6-yl)ethyl)acetamide] | 86% | 19% | 
8 | CCCCCc1cccc(OC2CN(c3nc4ccc(C(C)NC(C)=O)cc4o3)C2)c1 (centres unmarked) [Example 29, N-(1-(2-(3-(3-pentylphenoxy)azetidin-1-yl)-1,3-benzoxazol-6-yl)ethyl)acetamide] | 82% |  | 
9 | CC(=O)NC(C)c1ccc2oc(-c3ccc(Oc4cccc(OCC5CC5)c4)cn3)cc2c1 (centres unmarked) [Example 31, N-(1-(2-(5-(3-(cyclopropylmethoxy)phenoxy)pyridin-2-yl)-1-benzofuran-5-yl)ethyl)acetamide] | 98% | 42% | 
10 | CC(=O)NC(C)c1ccc2cc(-c3ccc(Oc4cccc(OCC5CC5)c4)cn3)oc2c1 (centres unmarked) [Example 35, N-(1-(2-(5-(3-(cyclopropylmethoxy)phenoxy)pyridin-2-yl)-1-benzofuran-6-yl)ethyl)acetamide] | 94% | 41% | 
11 | CC(=O)NC(C)c1ccc2c(c1)CC(c1ccc(Oc3cccc(OCC4CC4)c3)cn1)O2 (centres unmarked) [Example 36, N-(1-(2-(5-(3-(cyclopropylmethoxy)phenoxy)pyridin-2-yl)-2,3-dihydro-1-benzofuran-5-yl)ethyl)acetamide] | 100% |  | 
12 | CC(=O)NC(C)c1ccc2c(c1)CC(c1ccc(Oc3cccc(OCC4CC4)c3)cn1)O2 (centres unmarked) [Example 36b, N-(1-(2-(5-(3-(cyclopropylmethoxy)phenoxy)pyridin-2-yl)-2,3-dihydro-1-benzofuran-5-yl)ethyl)acetamide] |  |  | ACC1 inhibitory rate (%) at 10 μM (human ACC1; 10 µM): 101%
13 | CC(=O)NC(C)c1ccc2nc(-c3ccc(Oc4cccc(OCC5CC5)c4)nc3)oc2c1 (centres unmarked) [Example 37, N-(1-(2-(6-(3-(cyclopropylmethoxy)phenoxy)pyridin-3-yl)-1,3-benzoxazol-6-yl)ethyl)acetamide] | 101% | 44% | 
14 | CC(=O)NC(C)c1ccc2sc(N3CC(Oc4cccc(OCC5CC5)c4)C3)nc2c1 (centres unmarked) [Example 44, N-(1-(2-(3-(3-(cyclopropylmethoxy)phenoxy)azetidin-1-yl)-1,3-benzothiazol-5-yl)ethyl)acetamide] | 100% | 14% | 
15 | CC(=O)NC(C)c1ccc2nc(-c3ncc(Oc4cccc(OCC5CC5)c4)cc3C)oc2c1 (centres unmarked) [Example 47, N-(1-(2-(5-(3-(cyclopropylmethoxy)phenoxy)-3-methylpyridin-2-yl)-1,3-benzoxazol-6-yl)ethyl)acetamide] | 82% |  | 
16 | CC(=O)NC(C)c1cc2cc(-c3ccc(Oc4cccc(OCC5CC5)c4)cc3)ccc2o1 (centres unmarked) [Example 52, N-(1-(5-(4-(3-(cyclopropylmethoxy)phenoxy)phenyl)-1-benzofuran-2-yl)ethyl)acetamide] | 94% | 20% | 
17 | CC(=O)NC(C)c1ccc2cn(-c3ccc(Oc4cccc(OCC5CC5)c4)cc3)nc2c1 (centres unmarked) [Example 56, N-(1-(2-(4-(3-(cyclopropylmethoxy)phenoxy)phenyl)-2H-indazol-6-yl)ethyl)acetamide] | 94% |  | 
18 | CC(=O)NC(C)c1ccc2cc(-c3ccc(Oc4cccc(OCC5CC5)c4)nc3)oc2c1 (centres unmarked) [Example 67, N-(1-(2-(6-(3-(cyclopropylmethoxy)phenoxy)pyridin-3-yl)-1-benzofuran-6-yl)ethyl)acetamide] | 97% | 38% | 
19 | CC(=O)NC(C)c1ccc2nc(-c3ccc(Oc4cccc(OCC5CC5)c4)cc3)oc2c1C (centres unmarked) [Example 93, N-(1-(2-(4-(3-(cyclopropylmethoxy)phenoxy)phenyl)-7-methyl-1,3-benzoxazol-6-yl)ethyl)acetamide] | 94% |  | 
20 | CC(NC(N)=O)c1ccc2nc(-c3ccc(Oc4cccc(OCC5CC5)c4)nn3)oc2c1 (centres unmarked) [Example 110, 1-(1-(2-(6-(3-(cyclopropylmethoxy)phenoxy)pyridazin-3-yl)-1,3-benzoxazol-6-yl)ethyl)urea] | 98% |  | 
